Laboratory results reported in patent US20130281512A1, “AGENTS FOR TREATING DISORDERS INVOLVING MODULATION OF RYANODINE RECEPTORS” (LES LABORATOIRES SERVIER, priority 2012, published 2013).

How the values were obtained:
PKA-phosphorylated RyR2 = target: T1, PKA-phosphorylated RyR2 (Homo sapiens, UniProt Q92736); test: Calstabin2 rebinding assay: binding of calstabin2 to PKA-phosphorylated RyR2 (cardiac SR, immunoblot); settings: 100 nM compound; immunoblot with calstabin2 antibody
T1 construct: Cardiac SR membranes were prepared as previously described; from tissue; host or cells: cardiac sarcoplasmic reticulum (heart muscle microsomes)
Method: Cardiac SR membranes were prepared as previously described (Marx et al., 2000; Kaftan et al., Circ. Res., 1996, 78:990-97). Immunoblotting of microsomes (50 μg) was performed as described, with anti-calstabin antibody (1:1,000) (Jayaraman et al., J. Biol. Chem., 1992, 267:9474-77) for 1 hr at room temperature (Reiken et al., Circulation, 107:2459-66, 2003). After incubation with HRP-labeled anti-rabbit IgG (1:5,000 dilution; Transduction Laboratories, Lexington, Ky.), the blots were developed using ECL (Amersham Pharmacia, Piscataway, N.J.) and detected on x-ray film, or exposed to secondary antibodies labeled with infrared Dye and visualized on equipment from Li-Cor Biosciences (model Odyssey). Unless otherwise stated, compounds were tested at a concentration of 100 nM. A representative calstabin2 binding assay is presented below.
A. PKA phosphorylation of cardiac sarcoplasmic reticulum (CSR)
B. Reaction mixture was set up in 1.5 ml microfuge tube. 200 μg of cardiac SR were added to a reaction mix of kinase buffer, PKA and ATP to a final volume of 100 (Reaction mix below). ATP was added last to initiate the reaction.
20 μl Sample (cardiac SR, 2 or 10 μg/μl) 10 μl=10× Kinase buffer (80 mM MgCl2, 100 mM EGTA, 500 mM Tris/PIPES), pH=7.0
20 μl PKA (2units/ul) (Sigma # P2645)
40 μl=distilled H2O • 1. The tubes were incubated at 30° C. for 30 minutes. • 2. The reaction mix was then transferred to 0.5 ml thick walled glass tubes. • 3. The glass tubes containing the reaction mix were centrifuged for 10 min at 50,000×g in Sorvall Centrifuge RCM120EX using S120AT3 rotor. Centrifugation at 50,000×g for 10 min is sufficient to isolate the microsomes. • 4. The resulting pellet was washed 4 times with binding buffer (10 mM Imidazol 300 mM Sucrose, pH=7.4). Each time 100111 of 1× binding buffer was added to the tube to wash the pellet. The pellet was resuspended by flushing up and down using the pipette tip. After the last spin 501.11 of binding buffer was added and the pellets from all tubes were pooled. The reaction was stored at −20° C. • 5. Phosphorylation was confirmed by separating approximately 10 μg of CSR by 6% Polyacylamide gel electrophoresis (PAGE) and analyzing the immunoblots for both total RyR (5029 Ab, 1:3000 dilution or Monoclonal Ab from Affinity Bioreagents, Cat # MA3-916, 1:2000 dilution) and PKA phosphorylated RyR2 (P2809 Ab, 1:10000 dilution). • 6. Aliquots can be stored at −80 C.
C. Calstabin Rebinding Assay
• 1. PKA-phosphorylated CSR (approximately 20 μg) was incubated with 250 nM Calstabin 2 in 100111 binding buffer (as described above) with or without compounds. • 2. […] Calstabin2 binding was detected with anti-FKBP (Jayaraman et al., J. Biol. Chem. 1992; 267:9474-77, 1:2000) primary antibody and appropriate secondary antibody.

human hepatocytes = test: Metabolic stability in human hepatocytes; type: in vitro ADME
Method: Compound solubilization: Stock solutions were made in DMSO, and working solutions in William medium containing 1/10 rat plasma or 1/4 human plasma.
Metabolic stability determination: Compounds were incubated at 10^−7 M with isolated hepatocytes (6E+5 cells/ml for rat hepatocytes and 4E+5 cells/ml for human hepatocytes) at 37° C. in plasma from the same species diluted in Wiliams medium (1/10 dilution for rat and 1/4 dilution for human). Sampling times were performed at 0, 10, 20, 30, 60 and 120 min and enzymatic reaction stopped with methanol (v/v). Proteins were precipitated by centrifugation and the supernatant was analyzed by LC/MS/MS. Clint expressed as ml/min/g protein were calculated as for hepatic microsomes using a ratio of 0.134 mg protein/ml for 4E+5 cells/ml for human and 0.201 mg protein/ml for 6E+5 cells/ml for rat. The presence of the reference drug and the potential metabolite was checked by LC/MS/MS during the assay in each sample.

T1 sequence (Q92736 whole entry): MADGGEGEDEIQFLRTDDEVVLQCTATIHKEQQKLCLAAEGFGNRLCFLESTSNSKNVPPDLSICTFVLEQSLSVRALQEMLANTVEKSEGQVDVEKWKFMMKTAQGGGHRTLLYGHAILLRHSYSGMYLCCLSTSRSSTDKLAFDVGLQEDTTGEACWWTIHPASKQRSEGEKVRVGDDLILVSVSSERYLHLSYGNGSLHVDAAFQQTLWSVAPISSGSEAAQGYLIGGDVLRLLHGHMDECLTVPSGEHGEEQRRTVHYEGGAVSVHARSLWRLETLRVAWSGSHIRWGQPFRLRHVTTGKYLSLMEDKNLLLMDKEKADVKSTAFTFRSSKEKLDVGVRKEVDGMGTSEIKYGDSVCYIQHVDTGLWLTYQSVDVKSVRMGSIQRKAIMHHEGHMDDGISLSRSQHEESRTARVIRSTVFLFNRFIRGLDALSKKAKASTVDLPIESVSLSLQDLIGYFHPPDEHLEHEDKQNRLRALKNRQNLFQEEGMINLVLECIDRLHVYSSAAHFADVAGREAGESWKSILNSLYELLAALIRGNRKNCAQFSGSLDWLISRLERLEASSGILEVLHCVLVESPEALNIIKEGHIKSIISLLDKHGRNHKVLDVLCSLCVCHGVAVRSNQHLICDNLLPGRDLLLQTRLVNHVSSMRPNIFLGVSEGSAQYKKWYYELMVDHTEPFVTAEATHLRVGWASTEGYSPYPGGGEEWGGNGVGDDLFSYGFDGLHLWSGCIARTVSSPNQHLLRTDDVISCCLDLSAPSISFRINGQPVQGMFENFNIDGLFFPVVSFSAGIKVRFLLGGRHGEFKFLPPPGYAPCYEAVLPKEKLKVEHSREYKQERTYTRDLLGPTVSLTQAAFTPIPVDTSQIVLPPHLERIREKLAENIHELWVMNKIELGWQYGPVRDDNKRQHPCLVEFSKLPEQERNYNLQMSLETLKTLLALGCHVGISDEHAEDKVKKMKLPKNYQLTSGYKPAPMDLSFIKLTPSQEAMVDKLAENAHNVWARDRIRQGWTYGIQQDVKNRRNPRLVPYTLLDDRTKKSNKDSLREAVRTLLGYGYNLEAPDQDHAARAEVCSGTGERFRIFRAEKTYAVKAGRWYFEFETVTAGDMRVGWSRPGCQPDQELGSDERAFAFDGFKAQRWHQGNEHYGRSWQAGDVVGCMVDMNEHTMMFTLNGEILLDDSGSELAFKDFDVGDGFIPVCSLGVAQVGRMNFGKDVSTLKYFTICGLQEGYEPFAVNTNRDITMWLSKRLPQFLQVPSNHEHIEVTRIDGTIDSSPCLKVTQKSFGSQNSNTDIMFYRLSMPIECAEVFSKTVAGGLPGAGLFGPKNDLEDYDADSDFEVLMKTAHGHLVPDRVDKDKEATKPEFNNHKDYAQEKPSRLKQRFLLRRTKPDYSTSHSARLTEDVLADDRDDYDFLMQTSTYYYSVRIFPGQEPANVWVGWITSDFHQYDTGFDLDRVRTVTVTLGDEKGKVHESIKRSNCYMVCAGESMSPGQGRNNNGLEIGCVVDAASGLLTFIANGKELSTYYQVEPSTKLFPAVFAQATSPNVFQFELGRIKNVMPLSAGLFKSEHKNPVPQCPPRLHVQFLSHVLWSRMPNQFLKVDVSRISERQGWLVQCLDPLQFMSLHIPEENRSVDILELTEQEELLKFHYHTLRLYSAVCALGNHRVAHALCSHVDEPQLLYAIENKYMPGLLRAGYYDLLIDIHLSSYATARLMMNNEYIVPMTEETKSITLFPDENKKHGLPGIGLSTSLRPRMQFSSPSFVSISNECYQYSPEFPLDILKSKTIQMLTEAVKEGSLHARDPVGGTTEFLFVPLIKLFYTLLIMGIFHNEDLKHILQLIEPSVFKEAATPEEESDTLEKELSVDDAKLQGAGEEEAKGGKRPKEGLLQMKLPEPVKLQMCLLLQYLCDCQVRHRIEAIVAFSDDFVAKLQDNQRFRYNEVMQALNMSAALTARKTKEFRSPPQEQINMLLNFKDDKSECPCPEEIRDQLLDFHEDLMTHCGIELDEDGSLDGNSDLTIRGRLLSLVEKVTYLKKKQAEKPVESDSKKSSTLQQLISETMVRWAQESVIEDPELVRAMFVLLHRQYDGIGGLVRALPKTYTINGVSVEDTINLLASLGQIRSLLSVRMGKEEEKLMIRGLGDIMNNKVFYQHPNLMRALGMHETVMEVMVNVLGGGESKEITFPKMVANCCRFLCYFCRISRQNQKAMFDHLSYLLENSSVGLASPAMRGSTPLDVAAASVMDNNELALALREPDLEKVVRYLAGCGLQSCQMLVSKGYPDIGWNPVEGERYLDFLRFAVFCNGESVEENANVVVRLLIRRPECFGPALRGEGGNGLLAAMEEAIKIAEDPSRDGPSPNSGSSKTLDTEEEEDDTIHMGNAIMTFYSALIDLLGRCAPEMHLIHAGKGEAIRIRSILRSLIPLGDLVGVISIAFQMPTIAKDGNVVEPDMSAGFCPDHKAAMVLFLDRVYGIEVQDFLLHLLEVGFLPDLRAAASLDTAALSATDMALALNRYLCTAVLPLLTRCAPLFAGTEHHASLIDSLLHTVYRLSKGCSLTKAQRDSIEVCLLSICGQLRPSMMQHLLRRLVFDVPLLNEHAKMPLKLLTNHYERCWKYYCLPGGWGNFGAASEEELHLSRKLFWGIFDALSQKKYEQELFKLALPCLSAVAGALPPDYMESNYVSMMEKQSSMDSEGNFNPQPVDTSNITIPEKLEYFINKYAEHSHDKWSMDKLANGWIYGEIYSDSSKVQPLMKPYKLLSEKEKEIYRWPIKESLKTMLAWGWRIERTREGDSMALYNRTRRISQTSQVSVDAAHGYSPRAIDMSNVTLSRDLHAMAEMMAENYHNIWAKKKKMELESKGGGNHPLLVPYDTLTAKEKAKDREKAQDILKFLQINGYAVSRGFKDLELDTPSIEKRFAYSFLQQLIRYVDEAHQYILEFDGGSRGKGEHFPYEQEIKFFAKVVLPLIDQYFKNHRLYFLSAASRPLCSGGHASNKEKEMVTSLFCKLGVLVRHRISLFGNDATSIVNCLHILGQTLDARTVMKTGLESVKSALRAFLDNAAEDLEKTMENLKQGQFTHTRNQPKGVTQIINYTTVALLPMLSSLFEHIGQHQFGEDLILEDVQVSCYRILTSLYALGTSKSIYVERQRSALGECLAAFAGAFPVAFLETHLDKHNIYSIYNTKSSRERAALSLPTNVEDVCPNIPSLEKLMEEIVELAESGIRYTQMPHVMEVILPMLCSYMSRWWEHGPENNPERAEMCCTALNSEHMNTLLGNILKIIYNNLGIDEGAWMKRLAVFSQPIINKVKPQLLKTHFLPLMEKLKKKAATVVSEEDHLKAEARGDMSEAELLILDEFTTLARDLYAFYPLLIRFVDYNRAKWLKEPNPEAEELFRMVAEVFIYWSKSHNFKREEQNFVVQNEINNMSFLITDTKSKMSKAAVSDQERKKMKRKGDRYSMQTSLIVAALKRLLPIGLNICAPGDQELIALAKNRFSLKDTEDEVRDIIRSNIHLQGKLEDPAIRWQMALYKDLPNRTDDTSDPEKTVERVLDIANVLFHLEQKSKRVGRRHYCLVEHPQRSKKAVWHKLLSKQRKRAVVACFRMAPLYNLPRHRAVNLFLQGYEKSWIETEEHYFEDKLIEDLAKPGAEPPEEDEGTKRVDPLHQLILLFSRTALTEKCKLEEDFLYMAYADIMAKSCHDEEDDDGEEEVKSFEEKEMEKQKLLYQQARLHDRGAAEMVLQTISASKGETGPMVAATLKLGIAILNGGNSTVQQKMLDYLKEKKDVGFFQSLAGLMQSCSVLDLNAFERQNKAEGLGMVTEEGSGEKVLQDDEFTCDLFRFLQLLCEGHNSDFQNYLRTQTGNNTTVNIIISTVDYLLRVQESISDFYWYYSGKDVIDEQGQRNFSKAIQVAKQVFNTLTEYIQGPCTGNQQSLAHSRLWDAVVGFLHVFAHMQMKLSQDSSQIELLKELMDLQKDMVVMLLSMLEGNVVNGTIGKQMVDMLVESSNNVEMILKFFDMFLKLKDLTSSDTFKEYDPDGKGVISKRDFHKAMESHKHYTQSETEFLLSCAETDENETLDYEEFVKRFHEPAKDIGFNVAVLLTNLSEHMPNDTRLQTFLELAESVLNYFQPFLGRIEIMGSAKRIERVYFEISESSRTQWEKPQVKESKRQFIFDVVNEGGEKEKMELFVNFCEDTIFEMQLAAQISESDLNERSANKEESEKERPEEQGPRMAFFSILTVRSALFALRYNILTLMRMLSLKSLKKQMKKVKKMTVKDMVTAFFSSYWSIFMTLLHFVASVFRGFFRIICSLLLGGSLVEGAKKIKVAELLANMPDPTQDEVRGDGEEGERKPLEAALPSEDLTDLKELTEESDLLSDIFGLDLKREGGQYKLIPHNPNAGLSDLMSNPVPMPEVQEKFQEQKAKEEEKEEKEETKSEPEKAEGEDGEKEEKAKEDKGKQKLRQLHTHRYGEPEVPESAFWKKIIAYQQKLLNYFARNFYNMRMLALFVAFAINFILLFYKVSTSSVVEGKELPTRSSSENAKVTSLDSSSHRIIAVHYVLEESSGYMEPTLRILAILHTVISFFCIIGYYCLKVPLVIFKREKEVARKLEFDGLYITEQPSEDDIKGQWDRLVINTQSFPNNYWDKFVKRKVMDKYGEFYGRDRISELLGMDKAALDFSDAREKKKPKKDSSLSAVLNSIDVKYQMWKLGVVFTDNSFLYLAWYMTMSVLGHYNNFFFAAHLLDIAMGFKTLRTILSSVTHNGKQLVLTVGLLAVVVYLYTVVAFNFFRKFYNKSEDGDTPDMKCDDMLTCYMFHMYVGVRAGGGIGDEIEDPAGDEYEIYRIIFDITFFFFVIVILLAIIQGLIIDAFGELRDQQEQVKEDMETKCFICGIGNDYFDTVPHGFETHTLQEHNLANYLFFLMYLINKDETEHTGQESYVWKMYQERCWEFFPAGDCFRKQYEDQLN
T1 sequence (P68106 whole entry partner): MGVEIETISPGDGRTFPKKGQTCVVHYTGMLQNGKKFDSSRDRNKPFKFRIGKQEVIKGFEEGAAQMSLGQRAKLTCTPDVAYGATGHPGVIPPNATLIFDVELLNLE

COc1ccc2c(c1)CN(Cc1ccc(C(=O)O)cc1)CCS2 [Compound 1, 4-((7-Methoxy-2,3-dihydrobenzo[f][1,4]thiazepin-4(5H)-yl)methyl)benzoic acid]
binding of calstabin2 to PKA-phosphorylated RyR2 (PKA-phosphorylated RyR2): prevented the dissociation of calstabin2 from PKA-phosphorylated RyR2 and/or enhanced the (re)binding of calstabin2 to PKA-phosphorylated RyR | MF human % (human hepatocytes): 100% | Clint (human hepatocytes; 4.00E+05 cells/ml, 10^-7 M): 0 ml/min/gprot
